Data taken from patent publication US20240408169A1 (priority 2023, published 2024).
*1 amine or outer side, *2 acyl side, *3 side chain or, on linkers, in order; H or OH if unused. Where a SMILES comes first, the peptide text is derived from it. Bridges are numbered along the chain shown (N, C = ends). [ ]: non-standard residue; d: D form. The star is where a group is joined. X73 = CN([C@@H](Cc1cc(Cl)ccc1-c1ccc(N2CCN(Cc3cnn(C)c3)CC2)cc1)C(=O)[*:2])[*:1]; X50 = CN([C@@H](Cc1cc(Cl)ccc1-c1ccc(N2CCN(C3COC3)CC2)cc1)C(=O)[*:2])[*:1]; X45 = CN1CCC(F)(c2ccc(-c3ccc(Cl)cc3C[C@@H](C(=O)[*:2])N(C)[*:1])cc2)CC1; X59 = CC(c1ccc(-c2ccc(Cl)cc2C[C@@H](C(=O)[*:2])N(C)[*:1])cc1)N1CCOCC1; X8 = CN1CCN(C2CC=C(c3ccc(Cl)cc3C[C@@H](C(=O)[*:2])N(C)[*:1])CC2)CC1; X69 = CCOC(=O)N1CC=C(c2ccc(Cl)cc2C[C@@H](C(=O)[*:2])N(C)[*:1])CC1; X14 = Cc1nc(C)c(-c2ccc(Cl)cc2C[C@@H](C(=O)[*:2])N(C)[*:1])s1; X26 = CN([C@@H](Cc1cc(F)ccc1-c1cnn(C2CC2)c1)C(=O)[*:2])[*:1]; NMehhhLys(Me) = CN([C@@H](CCCCCCCN(C)[*:3])C(=O)[*:2])[*:1]; NMe(hhhLys) = CN([C@@H](CCCCCCCN[*:3])C(=O)[*:2])[*:1]; NMe3Pal(2-OMe,5-Cl) = CN[C@@H](Cc1cc(Cl)cnc1OC)C(=O)O; Oxane2carbonyl(2R-CF3) = O=C([C@@]1(C(F)(F)F)CCCCO1)*; X28 = CN([C@@H](Cc1cc(Cl)cnc1OC1CCC1)C(=O)[*:2])[*:1]; Cyclobutanecarbonyl(1-CF3) = O=C(C1(C(F)(F)F)CCC1)*; cBuCO(3,3-F2-1-CF3) = O=C(C1(C(F)(F)F)CC(F)(F)C1)*; Pro(trans-4-F) = O=C(O)[C@@H]1C[C@@H](F)CN1; Gly(cPr) = N[C@H](C(=O)O)C1CC1

Columns and labels:
WI-38 cells = test: MTT proliferation assay, WI-38; type: cell-based; settings: 3 days compound exposure, 1:3 serial dilution starting at 10 μM;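 note: Eight- or ten-point dilution series, with exposure length chosen to span about three to four cell doublings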
CyclinA2/CDK2 = target: T1, CyclinA2/CDK2 (Homo sapiens, UniProt P20248); test: Fluorescence Polarization (FP) competitive binding assay, Cyclin A2/Cdk2; settings: 8 nM Cyclin A2/Cdk2, 2 nM FAM probe; average of 2-3 independent experiments; read-out: Cyclin A FP IC50;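 note: plates equilibrated two hours at room temperature before polarization reading, IC50 fitted from eight-concentration compound titration curves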
T1 construct: purchased CRELUX Protein Services

NCI-H1048 cells = test: MTT proliferation assay, NCI-H1048; type: cell-based; settings: 5 days compound exposure, 1:3 serial dilution starting at 10 μM;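 note: Dose-response in 96-well plates over 8 or 10 concentration points, with exposure spanning 3-4 cell doublings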
CyclinB1/CDK1 = target: T2, CyclinB1/CDK1 (Homo sapiens, UniProt P14635); test: Fluorescence Polarization (FP) competitive binding assay, Cyclin B1/Cdk1; settings: 10 nM Cyclin B1/Cdk1, 2 nM FAM probe; average of 2-3 independent experiments; read-out: Cyclin B FP IC50;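 note: fluorescence polarization read after equilibration at room temperature, with IC50 taken from serially diluted dose-response curves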
T2 construct: purchased Eurofins, discovery 14-450

CyclinE1/CDK2 = target: T3, CyclinE1/CDK2 (Homo sapiens, UniProt P24864); test: Fluorescence Polarization (FP) competitive binding assay, Cyclin E1/Cdk2; settings: 10 nM Cyclin E1/Cdk2, 2 nM FAM probe; average of 2-3 independent experiments; read-out: Cyclin E FP IC50;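 note: readings taken after two-hour equilibration at room temperature in HEPES buffer with NaCl, DTT, NP-40 and BSA, IC50 fitted from eight-concentration serial dilution series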
T3 construct: purchased Eurofins, discovery 14-475

OVCAR3 cells = test: MTT proliferation assay, OVCAR3; type: cell-based; settings: 5 days compound exposure, 1:3 serial dilution starting at 10 μM;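 note: compound given as an 8- or 10-point series, one day after plating, with exposure covering roughly 3-4 cell doublings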

Row | Structure (SMILES) | GI50 (WI-38 cells) | IC50 (CyclinA2/CDK2) | GI50 (NCI-H1048 cells) | IC50 (CyclinB1/CDK1) | IC50 (CyclinE1/CDK2) | GI50 (OVCAR3 cells)
1 | COc1ncc(Cl)cc1C[C@H]1C(=O)NCCCCCCC[C@H](N(C)C(=O)[C@@H](NC(=O)[C@@H]2C[C@@H](F)CN2C(=O)[C@@]2(C(F)(F)F)CCCCO2)C2CC2)C(=O)N[C@@H](CC(C)C)C(=O)N1C [Example 274] ({Oxane2carbonyl(2R-CF3)}-[Pro(trans-4-F)][Gly(cPr)][NMe(hhhLys)]L[NMe3Pal(2-OMe,5-Cl)]; lactam 3-C) | 10.5 µM | 0.03 µM | 0.01 µM | 0.02 µM | 0.1 µM | 0.01 µM
2 | CC(C)C[C@@H]1NC(=O)[C@@H](N(C)C(=O)[C@@H](NC(=O)[C@@H]2C[C@@H](F)CN2C(=O)C2(C(F)(F)F)CC(F)(F)C2)C2CC2)CCCCCCCN(C)C(=O)[C@H](Cc2cc(Cl)ccc2-c2ccc(C(C)N3CCOCC3)cc2)N(C)C1=O (stereo partly drawn) [Example 403] ({cBuCO(3,3-F2-1-CF3)}-[Pro(trans-4-F)][Gly(cPr)][NMehhhLys(Me)]L[X59]; lactam 3-C) | 3.99 µM | 0.02 µM | 0.01 µM | 0.02 µM | 0.67 µM | 0.01 µM
3 | [2H]C([2H])([2H])N(C(=O)[C@@H](NC(=O)[C@@H]1C[C@@H](F)CN1C(=O)C1(C(F)(F)F)CC(F)(F)C1)C1CC1)[C@H]1CCCCCCCN(C)C(=O)[C@H](Cc2cc(Cl)ccc2-c2ccc(N3CCN(C)CC3)cc2)N(C)C(=O)[C@H](CC(C)C)NC1=O [Example 422] | 2.36 µM | 0.02 µM | 0.01 µM | 0.02 µM | 0.42 µM | 0.01 µM
4 | CCOC(=O)N1CC=C(c2ccc(Cl)cc2C[C@H]2C(=O)N(C)CCCCCCC[C@H](N(C)C(=O)[C@@H](NC(=O)[C@@H]3C[C@@H](F)CN3C(=O)C3(C(F)(F)F)CC(F)(F)C3)C3CC3)C(=O)N[C@@H](CC(C)C)C(=O)N2C)CC1 [Example 145] ({cBuCO(3,3-F2-1-CF3)}-[Pro(trans-4-F)][Gly(cPr)][NMehhhLys(Me)]L[X69]; lactam 3-C) | 10.1 µM | 0.02 µM | 0.07 µM | 0.02 µM | 1.3 µM | 0.08 µM
5 | CCN(C(=O)[C@@H](NC(=O)[C@@H]1C[C@@H](F)CN1C(=O)C1(C(F)(F)F)CC(F)(F)C1)C1CC1)[C@H]1CCCCCCCN(C)C(=O)[C@H](Cc2cc(Cl)ccc2-c2ccc(N3CCN(C)CC3)cc2)N(C)C(=O)[C@H](CC(C)C)NC1=O [Example 388] | 3.5 µM | 0.02 µM | 0.02 µM | 0.02 µM | 3.93 µM | 0.02 µM
6 | CC(C)C[C@@H]1NC(=O)[C@@H](N(C)C(=O)[C@@H](NC(=O)[C@@H]2C[C@@H](F)CN2C(=O)C2(C(F)(F)F)CC(F)(F)C2)C2CC2)CCCCCCCN(C)C(=O)[C@H](Cc2cc(Cl)ccc2-c2ccc(N3CCN(C4COC4)CC3)cc2)N(C)C1=O [Example 346] ({cBuCO(3,3-F2-1-CF3)}-[Pro(trans-4-F)][Gly(cPr)][NMehhhLys(Me)]L[X50]; lactam 3-C) | 3.68 µM | 0.02 µM | 0.01 µM | 0.02 µM | 0.36 µM | 0.01 µM
7 | CC(C)C[C@@H]1NC(=O)[C@@H](N(C)C(=O)[C@@H](NC(=O)[C@@H]2C[C@@H](F)CN2C(=O)C2(C(F)(F)F)CC(F)(F)C2)C2CC2)CCCCCCCN(C)C(=O)[C@H](Cc2cc(Cl)ccc2-c2ccc(N3CCN(Cc4cnn(C)c4)CC3)cc2)N(C)C1=O [Example 372] ({cBuCO(3,3-F2-1-CF3)}-[Pro(trans-4-F)][Gly(cPr)][NMehhhLys(Me)]L[X73]; lactam 3-C) | 2.84 µM | 0.02 µM | 0.01 µM | 0.02 µM | 0.43 µM | 0.01 µM
8 | Cc1nc(C)c(-c2ccc(Cl)cc2C[C@H]2C(=O)N(C)CCCCCCC[C@H](N(C)C(=O)[C@@H](NC(=O)[C@@H]3C[C@@H](F)CN3C(=O)C3(C(F)(F)F)CC(F)(F)C3)C3CC3)C(=O)N[C@@H](CC(C)C)C(=O)N2C)s1 [Example 207] ({cBuCO(3,3-F2-1-CF3)}-[Pro(trans-4-F)][Gly(cPr)][NMehhhLys(Me)]L[X14]; lactam 3-C) | 4.94 µM | 0.05 µM | 0.03 µM | 0.02 µM | 2.73 µM | 0.04 µM
9 | COc1ncc(Cl)cc1C[C@H]1C(=O)N(C)CCCCCCC[C@H](N(C)C(=O)[C@@H](NC(=O)[C@@H]2C[C@@H](F)CN2C(=O)C2(C(F)(F)F)CCC2)C2CC2)C(=O)N[C@@H](CC(C)C)C(=O)N1C [Example 224] ({Cyclobutanecarbonyl(1-CF3)}-[Pro(trans-4-F)][Gly(cPr)][NMehhhLys(Me)]L[NMe3Pal(2-OMe,5-Cl)]; lactam 3-C) | 12.4 µM | 0.03 µM | 0.01 µM | 0.02 µM | 0.1 µM | 0.01 µM
10 | CC(C)C[C@@H]1NC(=O)[C@@H](N(C)C(=O)[C@@H](NC(=O)[C@@H]2C[C@@H](F)CN2C(=O)C2(C(F)(F)F)CCC2)C2CC2)CCCCCCCN(C)C(=O)[C@H](Cc2cc(F)ccc2-c2cnn(C3CC3)c2)N(C)C1=O [Example 186] ({Cyclobutanecarbonyl(1-CF3)}-[Pro(trans-4-F)][Gly(cPr)][NMehhhLys(Me)]L[X26]; lactam 3-C) | 8.68 µM | 0.02 µM | 0.01 µM | 0.02 µM | 0.1 µM | 0.01 µM
11 | CC(C)C[C@@H]1NC(=O)[C@@H](N(C)C(=O)[C@@H](NC(=O)[C@@H]2C[C@@H](F)CN2C(=O)C2(C(F)(F)F)CCC2)C2CC2)CCCCCCCN(C)C(=O)[C@H](Cc2cc(Cl)cnc2OC2CCC2)N(C)C1=O [Example 139] ({Cyclobutanecarbonyl(1-CF3)}-[Pro(trans-4-F)][Gly(cPr)][NMehhhLys(Me)]L[X28]; lactam 3-C) | 6.42 µM | 0.02 µM | 0.07 µM | 0.02 µM | 0.1 µM | 0.15 µM
12 | CC(C)C[C@@H]1NC(=O)[C@@H](N(C)C(=O)[C@@H](NC(=O)[C@@H]2C[C@@H](F)CN2C(=O)C2(C(F)(F)F)CC(F)(F)C2)C2CC2)CCCCCCCN(C)C(=O)[C@H](Cc2cc(Cl)ccc2-c2ccc(C3(F)CCN(C)CC3)cc2)N(C)C1=O [Example 370] ({cBuCO(3,3-F2-1-CF3)}-[Pro(trans-4-F)][Gly(cPr)][NMehhhLys(Me)]L[X45]; lactam 3-C) | 1.21 µM | 0.02 µM | 0.02 µM | 0.02 µM | 0.78 µM | 0.02 µM
13 | CC(C)C[C@@H]1NC(=O)[C@@H](N(C)C(=O)[C@@H](NC(=O)[C@@H]2C[C@@H](F)CN2C(=O)C2(C(F)(F)F)CC(F)(F)C2)C2CC2)CCCCCCCN(C)C(=O)[C@H](Cc2cc(Cl)ccc2C2=CCC(N3CCN(C)CC3)CC2)N(C)C1=O (stereo partly drawn) [Example 376] ({cBuCO(3,3-F2-1-CF3)}-[Pro(trans-4-F)][Gly(cPr)][NMehhhLys(Me)]L[X8]; lactam 3-C) | 3.45 µM | 0.02 µM | 0.01 µM | 0.02 µM | 1.33 µM | 0.01 µM
